{"source": "paper PMC5274652", "about": "“Antagonizing Retinoic Acid Receptors Increases Myeloid Cell Production by Cultured Human Hematopoietic Stem Cells” (Archivum Immunologiae et Therapiae Experimentalis, 2016)", "key": {"human RARβ": {"molecular_target": "T1, human RARβ (Homo sapiens, UniProt P10826)", "T1 construct": "made in house", "T1 sequence (P10826 1-455)": "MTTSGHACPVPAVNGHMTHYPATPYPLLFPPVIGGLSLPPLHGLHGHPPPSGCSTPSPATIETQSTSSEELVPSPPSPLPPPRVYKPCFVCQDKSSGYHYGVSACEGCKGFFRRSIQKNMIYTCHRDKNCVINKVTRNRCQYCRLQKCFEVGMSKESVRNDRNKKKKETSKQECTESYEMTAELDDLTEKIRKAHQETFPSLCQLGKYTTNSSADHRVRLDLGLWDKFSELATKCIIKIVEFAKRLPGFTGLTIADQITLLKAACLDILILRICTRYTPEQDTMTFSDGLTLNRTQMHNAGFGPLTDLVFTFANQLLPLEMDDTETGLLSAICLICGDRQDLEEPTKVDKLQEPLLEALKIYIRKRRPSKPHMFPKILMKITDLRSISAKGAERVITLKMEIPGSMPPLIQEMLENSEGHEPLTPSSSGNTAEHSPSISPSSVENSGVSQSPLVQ", "experiment": "Competition with [3H]-ATRA binding, nuclear extracts of Sf21 cells expressing RARβ", "settings": "nuclear extracts of baculovirus-infected Sf21 cells, read-out: Binding affinity ED50, RARβ"}, "CD34^+vehuHSCs": {"test_system": "CD34^+vehuHSCs", "settings": "100 nM, 2 weeks, 2 donors", "protocol": "Assays for week-five cobblestone area forming cells (CAFC), long-term culture-initiating cells (LTC-IC), and colony-forming units (CFU) were performed at the Stem Cell Laboratory at the National Blood Service Stem Cell Laboratory using standard procedures and methods, as described by other workers (de […] and Ploemacher [2001]; Denning-Kendall et al. [1996]; Nicol et al. [1996]). CFU assays were performed using Methocult^TM GF H8444 (StemCell Technologies) and in 35 mm petri dishes. The presence of CAFC was scored as the presence of 12 or more closely associated and small cells that were embedded in the MS5 cell feeder layer and blind by an experienced reader. The nature of CFUs, as to colony-forming unit-granulocyte/erythroid/megakaryocyte/monocyte (CFU-GEMM), colony-forming unit-granulocyte/macrophage (CFU-GM), burst-forming unit-erythroid (BFU-E), and colony-forming unit-erythroid (CFU-E), was scored blind at the service by a person who routinely reads colony assays and is accredited. The nature of colonies was confirmed by sampling colonies and staining cytocentrifuged preparations of cells."}, "mice": {"test_system": "mice", "settings": "cited from earlier work"}, "human RARγ": {"molecular_target": "T2, human RARγ (Homo sapiens, UniProt P13631)", "T2 construct": "made in house", "T2 sequence (P13631 1-454)": "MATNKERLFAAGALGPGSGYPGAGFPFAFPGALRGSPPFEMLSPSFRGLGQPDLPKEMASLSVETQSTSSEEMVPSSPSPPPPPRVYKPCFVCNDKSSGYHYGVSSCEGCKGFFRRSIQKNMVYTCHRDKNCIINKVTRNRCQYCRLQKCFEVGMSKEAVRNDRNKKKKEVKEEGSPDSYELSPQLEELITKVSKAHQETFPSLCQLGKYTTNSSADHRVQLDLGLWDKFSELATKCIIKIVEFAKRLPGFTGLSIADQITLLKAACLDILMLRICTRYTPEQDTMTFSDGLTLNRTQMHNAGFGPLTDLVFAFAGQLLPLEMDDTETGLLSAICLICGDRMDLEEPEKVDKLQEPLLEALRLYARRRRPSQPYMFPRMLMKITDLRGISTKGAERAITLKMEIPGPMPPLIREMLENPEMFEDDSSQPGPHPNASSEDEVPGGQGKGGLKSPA", "experiment": "Competition with [3H]-ATRA binding, nuclear extracts of Sf21 cells expressing RARγ", "settings": "nuclear extracts of baculovirus-infected Sf21 cells, read-out: Binding affinity ED50, RARγ"}}}
{"molecule": "CCc1ccc(C2=CC(C)(C)Sc3ccc(C#Cc4ccc(C(=O)O)cc4)cc32)cc1", "note": "[AGN194310]", "values": [{"measurement": "IC50", "setting": "human RARβ", "result": 5, "unit": "nM"}, {"measurement": "BFU-E together with CFU-E as share of the total colony-forming units", "setting": "CD34^+vehuHSCs; control 7 %", "result": 41, "unit": "%"}, {"measurement": "CFU-GM as share of the total colony-forming units", "setting": "CD34^+vehuHSCs; control 93 %", "result": 56, "unit": "%"}, {"measurement": "CFU-GEMM as share of the total colony-forming units", "setting": "CD34^+vehuHSCs; control not detected", "result": 3, "unit": "%"}, {"measurement": "expansion of granulopoiesis in knockout mice lacking the receptor for G-CSF", "setting": "mice; G-CSFR knockout mice, ref Chee et al. 2013", "result": "not seen"}, {"measurement": "effect on myeloid cells after administration to mice", "setting": "mice; mice, ref Walkley et al. 2002, Chee et al. 2013", "result": "increases in myeloid progenitor cells and mature myeloid cells"}, {"measurement": "IC50", "setting": "human RARγ", "result": 2, "unit": "nM"}]}
